According to patent US4532254A, “Inhibitor of aldose reductase” (Kaken Pharmaceutical Co., Ltd., priority 1983, dated 1985):
Read-outs that look alike come from different tables or passages of the source.

How the values were obtained:
[1] = target: T1, bovine lens AR (Bos taurus, UniProt P16116); test: Inhibition of bovine lens aldose reductase (BLAR), NADPH oxidation at 340 nm; assay type: biochemical; conditions: for inhibition at 10 µM: 10^-5 M; for inhibition at 10 µM / inhibition at 1 µM / inhibition at 0.1 µM: read-out: Inhibition against enzyme activity (%); for inhibition at 1 µM: 10^-6 M; for inhibition at 0.1 µM: 10^-7 M; for IC50: Table 2, IC50 in M multiplied by 10^6
T1 construct: Bovine eyes were obtained from a local abattoir, and the lenses were removed and frozen until needed; from tissue; host or cells: bovine lens from a local abattoir; enzyme purified by ammonium sulfate, DEAE-Sephacel, Matrex gel red A and Sephadex G-75
Experimental: (§1) The inhibitory activities against AR of LARI-1, LARI-2, LARI-3 and LARI-4 were determined according to the following method.
(§2) In Recipe Example, the followings were used. NADPH was purchased from the Oriental Yeast Co., Ltd. DL-Glyceraldehyde and quercitrin were purchased from Nakarai Chemicals, Ltd. DEAE-Sephacel and Sephadex G-75 were purchased from Pharmacia Fine Chemicals. Matrex gel red A was purchased from the Amicon Co. All other chemicals were of the highest grade commercially available.
(§3) Rat lenses were removed from eyes of rats of the Wistar strain weighing 200 to 250 g. Bovine eyes were obtained from a local abattoir, and the lenses were removed and frozen until needed.
(§4) Usually a 10^-3 M solution was prepared and diluted to the desired concentrations with propylene glycol. To the reaction mixture were added aliquots of the diluted solution to yield concentrations of 10^-8 M to 10^-5 M and a propylene glycol concentration of 1%.
(§5) AR assays were conducted according to the procedure of Hayman and Kinoshita (J. Biol. Chem. 240, p. 877 (1965)), except for the addition of ammonium sulfate instead of lithium sulfate to the reaction mixture. Assays were performed at 30° C. in 0.1M sodium phosphate buffer (pH 6.2) containing 0.4M ammonium sulfate, 10 mM DL-glyceraldehyde, 0.16 mM NADPH and the enzyme (0.010 to 0.016 unit) in a total volume of 1.0 ml. The effects of inhibitors on the enzyme activity were determined in the reaction mixture containing 10 μl. of each inhibitor solution at the desired concentrations. The blank reference to correct for non-specific reduction of NADPH contained all of the above compounds except DL-glyceraldehyde. The reaction was initiated by the addition of DL-glyceraldehyde, and the rate of NADPH oxidation was followed by recording the decrease in absorbance at 340 nm on a Gilford model 250 spectrophotometer.
(§6) BLAR and RLAR were purified according to the method of Inagaki et al (Archs Biochem. Biophys. 216, p. 337 (1982)). Briefly, a 40 to 75% ammonium sulfate fraction was subjected to chromatography on DEAE-Sephacel, followed by two column chromatographic steps, i.e. affinity chromatography using Matrex gel red A and gel filtration on Sephadex G-75.
(§7) The concentration of inhibitor required for eliciting a 50% inhibition (IC50) was determined according to the method of Kador et al (Docum. Ophthal. Proc. Series 18, p. 117 (1979)).

[2] = target: T2, rat lens AR (Rattus norvegicus, UniProt P07943); test: Inhibition of rat lens aldose reductase (RLAR), NADPH oxidation at 340 nm; assay type: biochemical, rat (Wistar strain); conditions: for inhibition at 10 µM: 10^-5 M; for inhibition at 10 µM / inhibition at 1 µM / inhibition at 0.1 µM: read-out: Inhibition against enzyme activity (%); for inhibition at 1 µM: 10^-6 M; for inhibition at 0.1 µM: 10^-7 M
T2 construct: Rat lenses were removed from eyes of rats of the Wistar strain; from tissue; host or cells: lens of Wistar rats; enzyme purified by ammonium sulfate, DEAE-Sephacel, Matrex gel red A and Sephadex G-75
Experimental: as §1, §2, §3, §4, §5, §6, §7

[3] = Table 2, IC50 in M multiplied by 10^6, read-out: IC50 (M) × 10^6
[4] = read-out: IC50 (inhibition of RLAR)

| inhibition at 10 µM [1] | inhibition at 1 µM [1] | inhibition at 0.1 µM [1] | IC50 [1] | inhibition at 10 µM [2] | inhibition at 1 µM [2] | inhibition at 0.1 µM [2] | IC50 [2, 3] | IC50 [2, 4] | Structure (SMILES) |
| --- | --- | --- | --- | --- | --- | --- | --- | --- | --- |
| 100% | 91% | 35% | 180 nM | 96% | 92% | 73% | 3.6e-08 M | 3.6e-08 M | COc1c(O)c(OC)c2c(=O)cc(-c3ccc(O)c(O)c3)oc2c1OC [LARI-1, 3',4',6-trihydroxy-5,7,8-trimethoxyflavone] |
| 94% | 80% | 24% | 290 nM | 91% | 81% | 44% | 1.6e-07 M | 1.6e-07 M | COc1c(OC)c(OC)c2c(=O)cc(-c3ccc(O)cc3)oc2c1OC [LARI-2, 4'-hydroxy-5,6,7,8-tetramethoxyflavone] |
| 95% | 70% | 18% | 420 nM | 92% | 74% | 36% | 2.5e-07 M | 2.5e-07 M | COc1c(O)c(OC)c2c(=O)cc(-c3ccc(O)cc3)oc2c1OC [LARI-3, 4',6-dihydroxy-5,7,8-trimethoxyflavone] |
